Data reported in patent US8822449B2, “Substituted aminoindanes and analogs thereof, and the pharmaceutical use thereof” (Sanofi, priority 2008, dated 2014).

target: T1, sodium-proton exchanger of subtype 3 (NHE3) (Homo sapiens, UniProt P48764); assay: Recovery of intracellular pH (pHi) after acidification in LAP1 cells stably expressing NHE3 (BCECF fluorescence, FLIPR); assay type: cell-based; settings: Activity range (inhibitory effect on NHE3), LAP1 cells stably expressing NHE3; pH recovery after acidification; range 1 is % inhibition at 10 μM
T1 construct: expressed in transfected cells
T1 sequence (P48764 26-834): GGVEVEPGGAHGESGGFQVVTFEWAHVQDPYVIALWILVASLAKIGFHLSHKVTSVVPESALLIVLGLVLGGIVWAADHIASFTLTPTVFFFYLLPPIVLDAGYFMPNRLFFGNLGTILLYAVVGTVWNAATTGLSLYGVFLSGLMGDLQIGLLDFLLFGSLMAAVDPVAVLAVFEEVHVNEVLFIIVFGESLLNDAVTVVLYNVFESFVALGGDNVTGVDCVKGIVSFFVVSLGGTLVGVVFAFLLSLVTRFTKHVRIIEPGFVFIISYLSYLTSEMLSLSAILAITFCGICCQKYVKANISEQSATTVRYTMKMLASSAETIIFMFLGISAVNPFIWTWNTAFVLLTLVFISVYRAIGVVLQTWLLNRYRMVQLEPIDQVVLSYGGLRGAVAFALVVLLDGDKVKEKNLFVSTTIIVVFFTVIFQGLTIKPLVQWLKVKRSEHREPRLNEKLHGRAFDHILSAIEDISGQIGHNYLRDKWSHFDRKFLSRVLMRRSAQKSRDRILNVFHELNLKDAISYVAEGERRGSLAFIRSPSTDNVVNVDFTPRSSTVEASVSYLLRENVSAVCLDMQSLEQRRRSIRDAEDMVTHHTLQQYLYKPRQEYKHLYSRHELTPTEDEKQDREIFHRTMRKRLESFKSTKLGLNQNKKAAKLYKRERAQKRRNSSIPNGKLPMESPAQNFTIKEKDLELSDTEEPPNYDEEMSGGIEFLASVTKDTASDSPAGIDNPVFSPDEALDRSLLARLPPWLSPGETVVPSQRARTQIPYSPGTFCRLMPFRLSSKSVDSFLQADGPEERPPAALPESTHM

Row | SMILES | IC50 [nM]
1 | CN(C)S(=O)(=O)c1ccc(O[C@H]2c3ccccc3C[C@@H]2N2CCCC2)c(Cl)c1 (racemic) [Example 447, 3-chloro-N,N-dimethyl-4-(rac-trans-(1,2)-2-pyrrolidin-1-ylindan-1-yloxy)benzenesulfonamide] | < 1000

same assay, conditions: LAP1 cells stably expressing NHE3; pH recovery after acidification; range 1 is % inhibition at 10 μM; read-out: Activity range (inhibitory effect on NHE3)

Row | SMILES | IC50 [nM] | inhibition at 10 µM [%]
2 | COCCN(C)[C@H]1Cc2c(Cl)cc(Cl)cc2[C@@H]1Oc1ccc(-n2c(C)nnc2C)cc1 [Example 243, {trans-(1S,2S)-4,6-dichloro-1-[4-(3,5-dimethyl-[1,2,4]triazol-4-yl)phenoxy]indan-2-yl}-(2-methoxyethyl)-methylamine] | < 1000 | –
3 | NCC1CCN([C@@H]2Cc3ccccc3[C@H]2Oc2cccc(NC(N)=O)c2)C1 (mixture of isomers) [Example 233, {3-[rac-trans-(1,2)-2-(3-aminomethylpyrrolidin-1-yl)indan-1-yloxy]phenyl}urea] | 1000 to 10000 | –
4 | N[C@H]1CCCN([C@H]2CCc3ccccc3[C@@H]2Oc2ccc(C(F)(F)F)cc2)C1 (racemic) [Example 186, (S)-1-[rac-trans-(1,2)-1-(4-trifluoromethylphenoxy)-1,2,3,4-tetrahydronaphthalen-2-yl]piperidin-3-ylamine] | – | 20 to 50
5 | Cc1nnc(C2CC2)n1-c1ccc(O[C@H]2c3ccccc3C[C@@H]2N2CCCC2)cc1 (racemic) [Example 448, 3-Cyclopropyl-5-methyl-4-[4-(rac-trans-(1,2)-2-pyrrolidin-1-ylindan-1-yloxy)phenyl]-4H-[1,2,4]triazole] | < 1000 | –
6 | CC1(C)NC(=O)N(c2ccc(F)c(O[C@H]3c4cc(Cl)cc(Cl)c4C[C@@H]3N3CC[C@@H](O)C3)c2)C1=O [Example 416, 3-{3-[(1S,2S)-4,6-dichloro-2-((R)-3-hydroxypyrrolidin-1-yl)indan-1-yloxy]-4-fluorophenyl}-5,5-dimethylimidazolidine-2,4-dione] | 1000 to 10000 | –
7 | N[C@H]1CCCN([C@H]2CCc3ccccc3[C@@H]2Oc2ccc(-n3ccnc3)cc2)C1 (racemic) [Example 180, (S)-1-[rac-trans-(1,2)-1-(4-imidazol-1-ylphenoxy)-1,2,3,4-tetrahydronaphthalen-2-yl]piperidin-3-ylamine] | – | 20 to 50
8 | CS(=O)(=O)c1ccc(O[C@H]2c3cc(Cl)cc(F)c3C[C@@H]2N2CC[C@@H](O)C2)c(Cl)c1 [Example 106, (R)-1-[trans-(1S,2S)-6-chloro-1-(2-chloro-4-methanesulfonylphenoxy)-4-fluoroindan-2-yl]pyrrolidin-3-ol] | < 1000 | –
9 | CN1CCN(c2cccc(O[C@H]3c4cc(Cl)cc(Cl)c4C[C@@H]3N3CC[C@@H](O)C3)c2)C1=O [Example 319, 1-{3-[trans-(1S,2S)-4,6-dichloro-2-((R)-3-hydroxypyrrolidin-1-yl)indan-1-yloxy]phenyl}-3-methylimidazolidin-2-one] | 1000 to 10000 | –
10 | Cc1nnc(C)n1-c1ccc(O[C@H]2c3cc(Cl)cc(F)c3C[C@@H]2N2CC[C@@H](O)C2)c(Cl)c1 [Example 138, (R)-1-{trans-(1S,2S)-6-chloro-1-[2-chloro-4-(3,5-dimethyl-[1,2,4]triazol-4-yl)phenoxy]-4-fluoroindan-2-yl}pyrrolidin-3-ol] | < 1000 | –
11 | N[C@@H]1CCCN([C@H]2CCc3ccccc3[C@@H]2Oc2ccc(F)c(C(F)(F)F)c2)C1 (racemic) [Example 69, (R)-1-[rac-trans-(1,2)-1-(4-fluoro-3-trifluoromethylphenoxy)-1,2,3,4-tetrahydronaphthalen-2-yl]piperidin-3-ylamine] | – | 20 to 50
12 | COc1cccc(CC#N)c1O[C@H]1c2ccccc2CC[C@@H]1N1CCC[C@@H](N)C1 (racemic) [Example 229, {2-[rac-trans-(1,2)-2-((R)-3-aminopiperidin-1-yl)-1,2,3,4-tetrahydronaphthalen-1-yloxy]-3-methoxyphenyl}acetonitrile] | – | 20 to 50
13 | N[C@@H]1CCCN([C@H]2CCc3ccccc3[C@@H]2Oc2cccc3ncccc23)C1 (racemic) [Example 89, (R)-1-[rac-trans-(1,2)-1-(quinolin-5-yloxy)-1,2,3,4-tetrahydronaphthalen-2-yl]piperidin-3-ylamine] | 1000 to 10000 | –
14 | O=C1CCCN1c1ccc(O[C@H]2c3cc(Cl)cc(Cl)c3C[C@@H]2N2CCC2)cc1 [Example 259, 1-[4-((1S,2S)-2-azetidin-1-yl-4,6-dichloroindan-1-yloxy)phenyl]pyrrolidin-2-one] | – | 20 to 50
15 | N[C@@H]1CCCN([C@H]2CCc3ccccc3[C@@H]2Oc2ccc(Cl)cc2-c2cc[nH]n2)C1 (racemic) [Example 119, (R)-1-{rac-trans-(1,2)-1-[4-chloro-2-(1H-pyrazol-3-yl)phenoxy]-1,2,3,4-tetrahydronaphthalen-2-yl}piperidin-3-ylamine] | < 1000 | –
16 | CS(=O)(=O)c1ccccc1O[C@H]1c2cc(Cl)cc(Cl)c2C[C@@H]1N1CCC1 [Example 245, 1-[(1S,2S)-4,6-dichloro-1-(2-methanesulfonylphenoxy)indan-2-yl]azetidine] | – | 20 to 50
17 | CS(=O)(=O)c1ccc(O[C@H]2c3cc(Cl)cc(Cl)c3C[C@@H]2N2CC[C@@H](C#N)C2)cc1 [Example 105, (R)-1-[trans-(1S,2S)-4,6-dichloro-1-(4-methanesulfonylphenoxy)indan-2-yl]pyrrolidine-3-carbonitrile] | 1000 to 10000 | –
18 | Cc1nnc(C)n1-c1ccc(O[C@H]2c3cc(Cl)cc(Cl)c3C[C@@H]2N2CC[C@H](O)C2)cc1 [Example 206, (S)-1-{trans-(1S,2S)-4,6-dichloro-1-[4-(3,5-dimethyl-[1,2,4]triazol-4-yl)phenoxy]indan-2-yl}pyrrolidin-3-ol] | < 1000 | –
19 | NCC1CCN([C@@H]2Cc3ccccc3[C@H]2Oc2ccc3[nH]cc(CC(N)=O)c3c2)CC1 (racemic) [Example 388, 2-{5-[rac-trans-(1,2)-2-(4-aminomethylpiperidin-1-yl)indan-1-yloxy]-1H-indol-3-yl}acetamide] | 1000 to 10000 | –
20 | N#Cc1cc(Cl)ccc1O[C@H]1c2ccccc2CC[C@@H]1N1CCC[C@@H](N)C1 (racemic) [Example 366, 2-[rac-trans-(1,2)-2-((R)-3-aminopiperidin-1-yl)-1,2,3,4-tetrahydronaphthalen-1-yloxy]-5-chlorobenzonitrile] | – | 20 to 50
21 | N[C@H]1CCCN([C@@H]2Cc3ccccc3[C@H]2Oc2ccc(-n3ccnc3)cc2)C1 (racemic) [Example 181, (S)-1-[rac-trans-(1,2)-1-(4-imidazol-1-ylphenoxy)indan-2-yl]piperidin-3-ylamine] | 1000 to 10000 | –

Results, then the molecule that gave them:

Row | IC50 [nM] | inhibition at 10 µM [%] | SMILES
22 | – | 20 to 50 | NS(=O)(=O)c1ccc(O[C@H]2c3ccccc3C[C@@H]2CN2CCOCC2)c(F)c1 (racemic) [Example 449, 3-fluoro-4-(2-morpholin-4-ylmethylindan-1-yloxy)benzenesulfonamide]
23 | < 1000 | – | Cc1nnc(C)n1-c1ccc(O[C@H]2c3cc(Cl)cc(Cl)c3C[C@@H]2N(C)CCO)c(F)c1 [Example 704, 2-({trans-(1S,2S)-4,6-Dichloro-1-[4-(3,5-dimethyl-[1,2,4]triazol-4-yl)-2-fluoro-phenoxy]-indan-2-yl}-methyl-amino)-ethanol]
24 | 1000 to 10000 | – | N#Cc1ccc(O[C@H]2c3ccccc3CC[C@@H]2N2CCC[C@@H](N)C2)c(Cl)c1 (racemic) [Example 514, 4-[rac-trans-(1,2)-2-((R)-3-aminopiperidin-1-yl)-1,2,3,4-tetrahydronaphthalen-1-yloxy]-3-chlorobenzonitrile]
25 | – | 20 to 50 | N#Cc1ccc(S[C@H]2c3ccccc3C[C@@H]2N2CCCC2)cc1 [Example 455, 4-((1S,2S)-2-pyrrolidin-1-ylindan-1-ylsulfanyl)benzonitrile]
26 | 1000 to 10000 | – | Cc1nnc(C)n1-c1ccc(O[C@@H]2c3ccccc3C[C@@]2(C)N2CCCC2)c(F)c1 (racemic) [Example 494, 4-[3-fluoro-4-(-2-methyl-2-pyrrolidin-1-ylindan-1-yloxy)phenyl]-3,5-dimethyl-4H-[1,2,4]triazole]
27 | 1000 to 10000 | – | CN(C)S(=O)(=O)c1ccc(N[C@H]2c3cc(Cl)cc(Cl)c3C[C@@H]2N2CC[C@@H](O)C2)cc1 [Example 481, 4-[(1S,2S)-4,6-dichloro-2-((R)-3-hydroxypyrrolidin-1-yl)indan-1-ylamino]-N,N-dimethylbenzenesulfonamide]
28 | 1000 to 10000 | – | NC(=O)c1ccc(O[C@@H]2c3ccccc3C[C@H]2N2CCC(N)C2)cc1 (mixture of isomers) [Example 544, 4-[rac-trans-(1,2)-2-(3-aminopyrrolidin-1-yl)indan-1-yloxy]benzamide]
29 | < 1000 | – | CC(=O)Nc1cccc(O[C@H]2c3cc(Cl)ccc3C[C@@H]2N2CCCC2)c1 (racemic) [Example 658, N-[3-(rac-trans-(1,2)-6-chloro-2-pyrrolidin-1-ylindan-1-yloxy)phenyl]acetamide]
30 | < 1000 | – | Cc1nnc(C)n1-c1ccc(O[C@H]2c3cc(Cl)ccc3C[C@@H]2N2CCCC2)cc1 [Example 502, 4-[4-(trans-(1S,2S)-6-chloro-2-pyrrolidin-1-ylindan-1-yloxy)phenyl]-3,5-dimethyl-4H-[1,2,4]triazole]
